US9593149B2, “Amylin and calcitonin receptor agonist” (Novo Nordisk A/S, priority 2014, dated 2017)
≈ marks a conversion by molar mass, not a printed value. Numbered stars: 1 amine (or outer) side, 2 acyl side, 3 side chain; on linkers, the order of the positions; unused ones are H or OH. Peptide text beside a SMILES is read from it. * marks the point of attachment. C20 diacid = O=C(O)CCCCCCCCCCCCCCCCCCC(=O)*; C16 diacid = O=C(O)CCCCCCCCCCCCCCC(=O)*; γGlu = O=C(O)[C@H](CCC(=O)[*:2])N[*:1]

Experiments:
[1] = Assay (IV) determination of solubility; format: physicochemical
Protocol: Assay (IV)—Determination of Solubility
The mimylin peptide was dissolved in water at ˜500 nmol/ml and mixed 1:1 with a series of buffers (100 mM glycylglycine pH 3.0, 100 mM glycylglycine pH 4.0, 100 mM glycylglycine pH 5.0, 100 mM bistrispropane pH 6.0, 100 mM bistrispropane pH 6.5, 100 mM bistrispropane pH 7.0, 100 mM bistrispropane pH 7.5, 100 mM bistrispropane pH 8.0).

[2] = target: T1, rat calcitonin receptor (Rattus norvegicus, UniProt P32214); assay: Assay (VIII) binding to the rat calcitonin receptor; details: membranes; read-out: rCT-R binding IC50
T1 construct: expressed in transfected cells; host or cells: BHK tk'ts 13 (transient, FuGENE 6)
T1 sequence (P32214 25-479 isoform P32214-2 limits assumed): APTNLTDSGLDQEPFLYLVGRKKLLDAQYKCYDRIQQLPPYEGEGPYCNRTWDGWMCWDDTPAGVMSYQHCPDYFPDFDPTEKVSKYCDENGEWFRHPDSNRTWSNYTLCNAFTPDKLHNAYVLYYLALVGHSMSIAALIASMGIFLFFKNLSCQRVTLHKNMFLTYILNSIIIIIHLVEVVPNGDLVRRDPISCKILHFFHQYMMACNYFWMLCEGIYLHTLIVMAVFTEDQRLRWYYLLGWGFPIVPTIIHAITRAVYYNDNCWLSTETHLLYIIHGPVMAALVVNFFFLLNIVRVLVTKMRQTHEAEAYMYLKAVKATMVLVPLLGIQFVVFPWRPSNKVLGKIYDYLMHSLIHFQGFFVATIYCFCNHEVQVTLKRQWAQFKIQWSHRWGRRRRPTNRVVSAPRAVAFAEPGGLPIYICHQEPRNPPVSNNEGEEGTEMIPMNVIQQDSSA
Protocol: The morning after, the plates were washed three times in HBSS (4° C.), and lyzed in Lysis buffer (0.1 M NaOH), 1% SDS. Scintillation cocktail (MicroScint40®) was added and the plates were shaken at 500 rpm for a short period. The plate was incubated at room temperature in the dark for 1 hour and Read on a TopCounter™ (Packard). The IC50 was calculated using (one site binding competition analysis) GraphPad Prism5 as a measure of receptor affinity. Assay (VIII)—Determination of Binding to the Rat Calcitonin Receptor
The assay was performed as described above (Assay (VII)—Determination of binding to the human calcitonin receptor) with the exception that we used membranes prepared from BHK tk'ts 13 cells that were transiently transfected with the rat calcitonin receptor. The BHK tk'ts 13 cells were transiently transfected with rat calcitonin receptor using FuGENE® 6 (Roche), according to the manufacturer's recommendations. Cells were grown in DMEM with 10% FBS and 1% Pen/Strep.

| Compound | Solubility ([1]; pH 3.0) | Solubility ([1]; pH 4.0) | solubility at 18 h ([1]; pH 5.0) [µM] | Solubility ([1]; pH 6.0) | Solubility ([1]; pH 6.5) | Solubility ([1]; pH 7.0) | Solubility ([1]; pH 7.5) | Solubility ([1]; pH 8.0) | IC50 [2] [nM] | Solubility ([1]; pH 5.0) | solubility at 18 h ([1]; pH 4.0) [µM] |
| --- | --- | --- | --- | --- | --- | --- | --- | --- | --- | --- | --- |
| CC(C)C[C@H](NC(=O)[C@H](CCCNC(=N)N)NC(=O)CNC(=O)[C@H](CC(C)C)NC(=O)[C@@H](NC(=O)[C@H](C)NC(=O)[C@@H](NC(=O)[C@H](CO)NC(=O)[C@H](CC(C)C)NC(=O)[C@H](CCC(=O)O)NC(=O)[C@H](CO)NC(=O)[C@H](C)NC(=O)CC[C@H](NC(=O)CCCCCCCCCCCCCCCCCCC(=O)O)C(=O)O)[C@@H](C)O)[C@@H](C)O)C(=O)N[C@@H](CO)C(=O)N[C@@H](C)C(=O)N[C@@H](CCC(=O)O)C(=O)N[C@@H](CC(C)C)C(=O)N[C@@H](Cc1cnc[nH]1)C(=O)N[C@@H](CCC(=O)O)C(=O)N[C@@H](CC(C)C)C(=O)N[C@@H](CO)C(=O)N[C@H](C(=O)N[C@@H](Cc1ccc(O)cc1)C(=O)N1CCC[C@H]1C(=O)N[C@@H](CCCNC(=N)N)C(=O)N[C@H](C(=O)N[C@@H](CCC(=O)O)C(=O)N[C@H](C(=O)NCC(=O)N[C@@H](CO)C(=O)NCC(=O)N[C@@H](CO)C(=O)N[C@@H](Cc1ccc(O)cc1)C(N)=O)[C@@H](C)O)[C@@H](C)O)[C@@H](C)O [compound 99, [N-terminal(C20 diacid-gGlu), des1, 9T, 21S, 23Y, 30S, 31G, 33Y]mimylin] ({C20 diacid-γGlu}-ASELSTATLGRLSAELHELSTYPRTETGSGSY-NH2) | ≧200 μM | ≧200 μM | 19 (≈ 72.9 µg/mL) | ≧200 μM | ≧200 μM | ≧200 μM | ≧200 μM | ≧200 μM | 0.069 | – | – |
| CC(C)C[C@H](NC(=O)CNC(=O)[C@H](CO)NC(=O)[C@H](C)NC(=O)COCCOCCNC(=O)COCCOCCNC(=O)CC[C@H](NC(=O)CCCCCCCCCCCCCCCCCCC(=O)O)C(=O)O)C(=O)N[C@@H](CO)C(=O)N[C@H](C(=O)N[C@@H](C)C(=O)N[C@H](C(=O)N[C@@H](CC(C)C)C(=O)NCC(=O)N[C@@H](CCCNC(=N)N)C(=O)N[C@@H](CC(C)C)C(=O)N[C@@H](CO)C(=O)N[C@@H](CCC(N)=O)C(=O)N[C@@H](CCC(=O)O)C(=O)N[C@@H](CC(C)C)C(=O)N[C@@H](Cc1cnc[nH]1)C(=O)N[C@@H](CCC(=O)O)C(=O)N[C@@H](CC(C)C)C(=O)N[C@@H](CCC(N)=O)C(=O)N[C@H](C(=O)N[C@@H](Cc1ccc(O)cc1)C(=O)N1CCC[C@H]1C(=O)N[C@@H](CCCNC(=N)N)C(=O)N[C@H](C(=O)N[C@@H](CCC(=O)O)C(=O)N[C@H](C(=O)NCC(=O)N[C@@H](CO)C(=O)NCC(=O)N[C@H](C(=O)N[C@@H](Cc1ccc(O)cc1)C(N)=O)[C@@H](C)O)[C@@H](C)O)[C@@H](C)O)[C@@H](C)O)C(C)C)[C@@H](C)O [compound 120, [N-terminal(C20 diacid-gGlu-2xOEG), des1, 4G, 9V, 15Q, 21Q, 23Y, 30S, 31G, 32T, 33Y]mimylin] | ≧200 μM | ≧200 μM | 96 (≈ 400 µg/mL) | ≧200 μM | ≧200 μM | ≧200 μM | ≧200 μM | ≧200 μM | 0.027 | – | – |
| CC(C)C[C@H](NC(=O)CNC(=O)[C@H](CO)NC(=O)[C@H](C)NC(=O)CC[C@H](NC(=O)CCCCCCCCCCCCCCCCCCC(=O)O)C(=O)O)C(=O)N[C@@H](CO)C(=O)N[C@H](C(=O)N[C@@H](C)C(=O)N[C@H](C(=O)N[C@@H](CC(C)C)C(=O)NCC(=O)N[C@@H](CCCNC(=N)N)C(=O)N[C@@H](CC(C)C)C(=O)N[C@@H](CO)C(=O)N[C@@H](CCC(N)=O)C(=O)N[C@@H](CCC(=O)O)C(=O)N[C@@H](CC(C)C)C(=O)N[C@@H](Cc1cnc[nH]1)C(=O)N[C@@H](CCC(=O)O)C(=O)N[C@@H](CC(C)C)C(=O)N[C@@H](CCC(N)=O)C(=O)N[C@H](C(=O)N[C@@H](Cc1ccc(O)cc1)C(=O)N1CCC[C@H]1C(=O)N1CCC[C@H]1C(=O)N[C@H](C(=O)N[C@@H](CCC(=O)O)C(=O)N[C@H](C(=O)NCC(=O)N[C@@H](CO)C(=O)NCC(=O)N[C@H](C(=O)N[C@@H](Cc1ccc(O)cc1)C(N)=O)[C@@H](C)O)[C@@H](C)O)[C@@H](C)O)[C@@H](C)O)[C@@H](C)O)[C@@H](C)O [compound 128, [N-terminal(C20 diacid-gGlu), des1, 4G, 9T, 15Q, 21Q, 23Y, 25P, 30S, 31G, 32T, 33Y]mimylin] ({C20 diacid-γGlu}-ASGLSTATLGRLSQELHELQTYPPTETGSGTY-NH2) | ≧200 μM | – | – | ≧200 μM | ≧200 μM | ≧200 μM | ≧200 μM | ≧200 μM | 0.028 | ≧200 μM | 25 (≈ 95.5 µg/mL) |

These reach a lower IC50 [2]. Values come first.

| Solubility ([1]; pH 3.0) | Solubility ([1]; pH 4.0) | solubility at 18 h ([1]; pH 5.0) [µM] | Solubility ([1]; pH 6.0) | Solubility ([1]; pH 6.5) | Solubility ([1]; pH 7.0) | Solubility ([1]; pH 7.5) | Solubility ([1]; pH 8.0) | IC50 [2] [nM] | Solubility ([1]; pH 5.0) | solubility at 18 h ([1]; pH 4.0) [µM] | Compound |
| --- | --- | --- | --- | --- | --- | --- | --- | --- | --- | --- | --- |
| ≧200 μM | ≧200 μM | – | ≧200 μM | ≧200 μM | ≧200 μM | ≧200 μM | ≧200 μM | 0.02 | ≧200 μM | – | CC(C)C[C@H](NC(=O)[C@H](C)NC(=O)[C@H](C)NC(=O)[C@@H](NC(=O)[C@H](CO)NC(=O)[C@H](CC(C)C)NC(=O)[C@H](CCC(=O)O)NC(=O)[C@H](CO)NC(=O)[C@H](C)NC(=O)CC[C@H](NC(=O)CCCCCCCCCCCCCCCCCCC(=O)O)C(=O)O)[C@@H](C)O)C(=O)NCC(=O)N[C@@H](CCCNC(=N)N)C(=O)N[C@@H](CC(C)C)C(=O)N[C@@H](CO)C(=O)N[C@@H](C)C(=O)N[C@@H](CCC(=O)O)C(=O)N[C@@H](CC(C)C)C(=O)N[C@@H](Cc1cnc[nH]1)C(=O)N[C@@H](CCC(=O)O)C(=O)N[C@@H](CC(C)C)C(=O)N[C@@H](C)C(=O)N[C@H](C(=O)N[C@@H](CC(C)C)C(=O)N1CCC[C@H]1C(=O)N[C@@H](CCCNC(=N)N)C(=O)N[C@H](C(=O)N[C@@H](CCC(=O)O)C(=O)N[C@H](C(=O)NCC(=O)N[C@@H](CO)C(=O)NCC(=O)N[C@@H](CO)C(=O)N[C@@H](Cc1cnc[nH]1)C(N)=O)[C@@H](C)O)[C@@H](C)O)[C@@H](C)O [compound 60, [N-terminal(C20 diacid-gGlu), des1, 30S, 31G, 33H]mimylin] ({C20 diacid-γGlu}-ASELSTAALGRLSAELHELATLPRTETGSGSH-NH2) |
| ≧200 μM | ≧200 μM | – | ≧200 μM | ≧200 μM | ≧200 μM | ≧200 μM | ≧200 μM | 0.013 | ≧200 μM | – | CC(C)C[C@H](NC(=O)[C@H](C)NC(=O)[C@H](C)NC(=O)[C@@H](NC(=O)[C@H](CO)NC(=O)[C@H](CC(C)C)NC(=O)[C@H](CCC(=O)O)NC(=O)[C@H](CO)NC(=O)[C@H](C)NC(=O)CC[C@H](NC(=O)CCCCCCCCCCCCCCC(=O)O)C(=O)O)[C@@H](C)O)C(=O)NCC(=O)N[C@@H](CCCNC(=N)N)C(=O)N[C@@H](CC(C)C)C(=O)N[C@@H](CO)C(=O)N[C@@H](C)C(=O)N[C@@H](CCC(=O)O)C(=O)N[C@@H](CC(C)C)C(=O)N[C@@H](Cc1cnc[nH]1)C(=O)N[C@@H](CCC(=O)O)C(=O)N[C@@H](CC(C)C)C(=O)N[C@@H](C)C(=O)N[C@H](C(=O)N[C@@H](CC(C)C)C(=O)N1CCC[C@H]1C(=O)N[C@@H](CCCNC(=N)N)C(=O)N[C@H](C(=O)N[C@@H](CCC(=O)O)C(=O)N[C@H](C(=O)NCC(=O)N[C@@H](CO)C(=O)NCC(=O)N[C@@H](CO)C(=O)N1CCC[C@H]1C(N)=O)[C@@H](C)O)[C@@H](C)O)[C@@H](C)O [compound 47, [N-terminal(C16 diacid-gGlu), des1, 30S, 31G]mimylin] ({C16 diacid-γGlu}-ASELSTAALGRLSAELHELATLPRTETGSGSP-NH2) |
